Laboratory results published in ChEMBL document CHEMBL3272151, “Quantitative structure-activity relationship of chymotrypsin-ligand interactions” (J Med Chem, 1977).

Legend:
[1] = Inhibition of chymotrypsin (unknown origin); conditions: Homo sapiens
[2] = Binding affinity to chymotrypsin (unknown origin) assessed as acetylation at pH 7; conditions: Homo sapiens
[3] = Binding affinity to chymotrypsin (unknown origin) assessed as deacetylation; conditions: Homo sapiens
[4] = Binding affinity to chymotrypsin (unknown origin) assessed as acetylation at pH 6; conditions: Homo sapiens
[5] = Binding affinity to alpha-chymotrypsin (unknown origin); conditions: Homo sapiens
[6] = Binding affinity to alpha-chymotrypsin (unknown origin) assessed as hydrolysis; conditions: Homo sapiens

Description for Homo sapiens: Inhibition of alpha-chymotrypsin (unknown origin)

Row | SMILES | log1/Ki [1] | log K [2] | log K [4] | further results
1 | O=C(O)CCCc1ccccc1 | 3.22 | – | – | –
2 | c1ccc2ccccc2c1 | – | – | – | log1/Ki (Homo sapiens): 3.93
3 | CC(C)(C)c1ccc(C(=O)O)cc1 | 3.89 | – | – | –
4 | O=C(Oc1ccc([N+](=O)[O-])cc1)c1cccc(F)c1 | – | 3.6 | 3.17 | log K [3]: -0.35
5 | COc1ccc(C(=O)Oc2ccc([N+](=O)[O-])cc2)cc1 | – | 2.97 | 2.78 | log K [3]: -4.39
6 | CCCCC | 2.25 | – | – | –
7 | O=C(Oc1ccc([N+](=O)[O-])cc1)c1ccc(F)cc1 | – | 3.11 | 2.74 | –
8 | COC(=O)CNC(C)=O | – | -0.31 | – | log(1/Km) [5]: 1.51; logKcat [6]: -1.89
9 | C1=CCCCC1 | 2.07 | – | – | –
10 | Cc1ccc(C(=O)Oc2ccc([N+](=O)[O-])cc2)cc1 | – | 3.31 | 2.85 | –
11 | O=C(O)c1ccccc1 | 1.99 | – | – | –
12 | Cc1ccc(C(=O)O)cc1 | 2.43 | – | – | –
13 | O=C(Oc1ccc([N+](=O)[O-])cc1)c1cccc(Cl)c1 | – | 3.77 | 3.43 | –
14 | O=C(Oc1ccc([N+](=O)[O-])cc1)c1ccc(C(F)(F)F)cc1 | – | 3.95 | 3.41 | log K [3]: -2.69
15 | O=[N+]([O-])c1ccccc1 | – | – | – | log1/Ki (Homo sapiens): 3.02
16 | N#Cc1ccc(C(=O)Oc2ccc([N+](=O)[O-])cc2)cc1 | – | 3.94 | 3.35 | –
17 | O=C(Oc1ccc([N+](=O)[O-])cc1)c1cccc(C(F)(F)F)c1 | – | 3.59 | 3.22 | –
18 | CCc1ccccc1 | – | – | – | log1/Ki (Homo sapiens): 2.74
19 | Cc1ccccc1 | – | – | – | log1/Ki (Homo sapiens): 2.55
20 | O=C(Oc1ccc([N+](=O)[O-])cc1)c1ccc(Cl)cc1 | – | 3.56 | 3.27 | log K [3]: -3.48
21 | O=C(O)CCc1ccccc1 | 2.79 | – | – | –
22 | C1=Cc2ccccc2C1 | 3.67 | – | – | –
23 | CCc1ccc(C(=O)Oc2ccc([N+](=O)[O-])cc2)cc1 | – | 3.97 | 3.87 | –
24 | Clc1ccccc1 | – | – | – | log1/Ki (Homo sapiens): 3.09
25 | c1ccc2cc3ccccc3cc2c1 | – | – | – | log1/Ki (Homo sapiens): 5.26
26 | O=C(Oc1ccc([N+](=O)[O-])cc1)c1ccccc1 | – | 3.16 | 2.64 | log K [3]: -3.69
27 | O=C(Oc1ccc([N+](=O)[O-])cc1)c1ccc([N+](=O)[O-])cc1 | – | 3.96 | 3.55 | log K [3]: -3.44
28 | O=C(O)c1ccc2ccccc2c1 | 3.86 | – | – | –
29 | Cc1cccc(C(=O)O)c1 | 2.42 | – | – | –
